pIC50: −log10 of the molar value. Structures can show the parent of a compound that is named as a salt. Where two headings read alike, the source gives them in different places.
Key:
KP-1 cells = experiment: Dose-dependent CCK8 viability assay; assay type: cell-based; conditions: Mus musculus, 48 hours
Procedure: In this example, dose-dependent CCK8 Viability assay was performed to determine the IC50 (the concentration of compound to achieve 50% viability) of several of the hit compounds identified from Example 2. A variety of cell lines were used: • Jurkat cells: Human leukemia • A549 cells: Human NSCLC • KP-1 cells: Mouse NSCLC with KRAS and P53 mutations • MCF-7 cells: Human breast cancer
Method for Adherent Cells (A549, MCF-7 and KP-1 Cells)
5000 cells/100 uL were seeded in 96-well plates and incubate at 37° C.+5% CO2 overnight. Media were replaced with 100 uL of compound per well in 6 replicates in a series of 2-fold dilutions. The following controls were prepared.
Blank control: 100 uL 0.1% DMSO in media with no cells per well.
Positive control: 100 uL of 10 uM 5-flurouracil per well.
Negative control: 100 uL of 0.1% DMSO in media per well.
Each 96-well plate included 1 compound in 7 concentrations and a complete set of controls (in 6 replicates).
Cells were incubated at 37° C.+5% CO2 for 46 hours. 10 uL of CCK8 solution was added to each well. Cells were incubated at 37° C.+5% CO2 for 2 hours. Absorbance at 450 nm was measured using a multiplate reader.
Viability was calculated using the equation: […]

[1] = system: HMC3 microglial cell line; experiment: RSL3-induced ferroptosis model, cell viability (CCK-8); assay type: cell-based
HMC3 cells [2] = experiment: Lipid peroxidation level by flow cytometry using C11-BODIPY; assay type: cell-based
Procedure: (§1) For flow cytometry, HMC3 cells (seeded 50,000 cells per well on 24-well plate one day prior to the experiment) were pretreated with 50 nM RSL3 for 2 h. […] After which medium was replaced with BODIPY™ 581/591C11 (10 μM, Invitrogen) or CellROX™ Green (5 μM, Invitrogen) for 30 min staining. Cells were then washed 3 times with PBS and collected. Fluorescence was measured by BD FACSympgony A5.2 SORP Flow Cell Analyzer (BD Biosciences).
Disequilibrium ROS level acts as a direct initiator of lipid peroxidation, which is one of the major hallmarks of ferroptosis. In this example, HMC3 cells according to the conditions in Table 4 were subjected to measurement of lipid peroxidation level using flow cytometry and the lipid peroxidation sensor C11-BODIPY.
For flow cytometry, HMC3 cells (seeded 50,000 cells per well on 24-well plate one day prior to the experiment) were pretreated with 50 nM RSL3 for 2 h. After RSL3 treatment, medium was replaced by DMSO (0.1%) only, SXQ087-1 (10, 5 and 2.5 μM), following by 3 h treatment. After which medium was replaced with BODIPY™ 581/591C11 (10 μM, Invitrogen) for 30 min staining. Cells were then washed 3 times with PBS and collected. Fluorescence was measured by BD FACSympgony A5.2 SORP Flow Cell Analyzer (BD Biosciences).
Lipid peroxidation is one of the major hallmarks of ferroptosis. In this example, HMC3 cells according to the conditions in Table 5 were subjected to measurement of lipid peroxidation level using flow cytometry and the lipid peroxidation sensor C11-BODIPY.

HMC3 cells [3] = assay type: cell-based
GPX4 = GPX4 protein level by Western-blot; assay type: cell-based; conditions: HMC3, co-treated with RSL3 1 μM and compound 10, 5, 2.5 μM, 3 h
From the text: As mentioned above, RSL3 treatment results in an oxidized environment in cells, which promotes the CMA to scavenge damaged proteins including GPX4 or glyceraldehyde-3-phosphate dehydrogenase (GAPDH), a well-known CMA substrate. To gain insights into the mechanism of action of bilobalide analogue XBB-037 against the RSL3-induced ferroptosis, HMC3 cells were pre-treated with RSL3, followed by treatment with or without bilobalide analogue XBB-037.
In FIN56 assay, HMC3 (300,000 cells per well on 6-well plate) was pre-treated with FIN56 (2.5, 1.25, 0.625 μM) for 2 h, followed by 8 h treatment of DMSO only (0.1%) or XBB-037 (50 μM). In RSL3 assay, HMC3 (300,000 cells per well on 6-well plate) was pre-treated with RSL3 (750, 500, 250 nM) for 2 h, followed by 4 h or 8 h treatment of DMSO only (0.1%) or XBB-037 (50 μM). […] Antibodies for GPX4 (52455, CST) was used at 1:500 dilution, β-Actin (AC026, ABclonal) was used at 1:400,000 dilution, GAPDH (AC035, ABclonal) was used at 1:3000 dilution. […] Band intensity was normalized by image lab software.
Now referring to FIGS. 7E-7F, GPX4 levels in HMC3 cells pre-treated with RSL3 are shown. Protein levels of GPX4 and […] at 0, 250, 500 or 750 nM RSL3 were measured by Western-blot. HMC3 cells were pretreated with RSL3 for 2 hours and then treated with or without 50 μM bilobalide analogue XBB-037 for 4 hours.
In addition to […], FIN56 was further used to investigate the GPX4 regulation of bilobalide analogue XBB-037. As mentioned above, FIN56 is a Class III ferroptosis inducer, which causes the depletion of cellular GPX4 levels without affecting GPX4 activity. In this experiment, HMC3 cells were pretreated with FIN56 for 2 hours and then treated with or without 50 μM XBB-037 for 8 hours. Protein levels were measured by Western-blotting using indicated antibodies. Data were plotted as mean±s.d., n=3 technical replicates. **p<0.01. Statistical analyses were performed by two-way ANOVA with multiple comparisons using Two-stage linear step-up procedure of Benjamini, Krieger and Yekutieli multiple comparisons test. […]

HMC3 cells [4] = experiment: Cytotoxicity, cell viability of HMC3 cells; assay type: cell-based; conditions: 24 h treatment
From the text: Now referring to FIG. 11A, a chart showing the cell viability (%) of HMC3 cells treated with SXQ087-1, XBB-037 or bilobalide.

LC3-II/LC3-I = conditions: HMC3, co-treated with RSL3 1 μM and compound 10, 5, 2.5 μM, 3 h
Procedure: After incubation, cells were washed 3 times with ice-cold PBS and lysed in RIPA buffer containing 1× protease inhibitor cocktail (MCE) and nuclease (Biyotime) on ice for 30 min. All samples were centrifuged and then quantified by bicinchoninic acid (BCA) assay (Pierce). Cell lysates were diluted with Laemmli Sample Buffer (Bio-Rad) and heated at 95° C. for 5 min. Samples were separated by 12% SDS-PAGE and transferred to a polyvinylidene difluoride membrane. Membrane was incubated with 3% bovine serum albumin (BSA, Sigma-Aldrich) for 1 h, and subsequently incubated with indicated primary antibody overnight at 4° C. After incubation, membrane was washed by wash buffer (containing 20 mM Tris, 150 mM NaCl and 0.1% Tween 20), and incubated with peroxidase-conjugated secondary antibody at room temperature for 1 h. Antibodies for GPX4 (52455, Cell Signaling Technology) was used at 1:500 dilution, GAPDH (sc-32233, Santacruz) was used at 1:3000 dilution, LC3B (A19665, ABclonal) was used at 1:1000 dilution. Goat anti-rabbit IgG HRP-linked antibody (7074, CST) was used at 1:2500 dilution, goat anti-mouse IgG (H+L) secondary antibody DyLight™ 488 (35502, Invitrogen) was used at 1:5000 dilution. Blot was washed and visualized using Clarity Western ECL Substrate (Bio-Rad) with ChemiDoc MP Imaging System (Bio-Rad). Band intensity was normalized by image J software.

[5] = cell free
[6] = system: HT22 mouse hippocampal cell line; experiment: RSL3-induced ferroptosis model, cell viability (CCK-8)
Procedure: In this example, the anti-ferroptotic properties of the BB analogues described in preceding examples were evaluated by a RSL3-induced ferroptosis model. […] To evaluate the anti-ferroptosis activity of BB analogues, we developed a phenotypic screening based on RSL3-induced ferroptosis model on HT22 mouse hippocampal cell line, HMC3 microglial cell line and BV-2 murine microglial cell line which were co-treated or pre-treated with RSL3 and BB analogues for 2-24 h, and the cell viability was subsequently measured.
HMC3 cell line was maintained in Minimum Essential Medium (MEM, Gibco) supplemented with 1× non-essential amino acid (Gibco), 1 mM sodium pyruvate (Gibco), 10% fetal bovine serum (FBS) (Gibco) and 1% penicillin/streptomycin (Gibco). BV-2 cell line was maintained in Roswell Park Memorial Institute (RPMI) 1640 medium (Gibco) supplemented with 10% FBS and 1% penicillin/streptomycin, and HT22 cell line was maintained in Dulbecco's Modified Eagle's Medium (DMEM) (Gibco) supplemented with 10% FBS and 1% penicillin/streptomycin. All cells were incubated at 37° C. in a humidified atmosphere under 5% CO2.
For phenotypic screening of bilobalide (BB) analogues, 5,000 cells per well (100 uL volume) of HT22, HMC3 or BV-2 cells were placed in 96-well plate and allowed to adhere for 22 h. After which, cells were pre-treated with 200 nM (on HT22, HMC3) or 500 nM (on BV-2) of RSL3 (Bidepharm) for 2 h respectively. Medium was then replaced by 50 μM BB analogues and followed by 22 h incubation subsequently. Cell viability was measured using cell counting kit-8 (CCK-8) (MCE). For dose-response of BB analogues, RSL3, HT22 and HMC3 cells (seeded on 96-well plates at 5,000 cells per well) were treated with multiple doses of RSL3 for 2 h. […] Cell viability was measured after 22 h treatment by CCK-8. […] Cell viability was measured by CCK-8 using CLARIOstar monochromator multimode plate reader under 450 nm wavelength.
In this example, the cells were pre-treated with RSL3 (200 nM for HT22 and HMC3, 500 nM for BV-2) for two hours, followed by bilobalide analogues treatment (50 PM) for 22 hours. Cell viability was measured using cell counting kit-8 (CCK-8); n=5 technical replicates. […] Such effect was further investigated by treating the cell lines with various doses of RSL3.

[7] = system: BV-2 murine microglial cell line; experiment: as above
Procedure: In this example, the anti-ferroptotic properties of the BB analogues described in preceding examples were evaluated by a RSL3-induced ferroptosis model. […] To evaluate the anti-ferroptosis activity of BB analogues, we developed a phenotypic screening based on RSL3-induced ferroptosis model on HT22 mouse hippocampal cell line, HMC3 microglial cell line and BV-2 murine microglial cell line which were co-treated or pre-treated with RSL3 and BB analogues for 2-24 h, and the cell viability was subsequently measured. […]
For phenotypic screening of bilobalide (BB) analogues, 5,000 cells per well (100 uL volume) of HT22, HMC3 or BV-2 cells were placed in 96-well plate and allowed to adhere for 22 h. […] Cell viability was measured using cell counting kit-8 (CCK-8) (MCE). […] Cell viability was measured after 22 h treatment by CCK-8. […] Cell viability was measured by CCK-8 using CLARIOstar monochromator multimode plate reader under 450 nm wavelength.
In this example, the cells were pre-treated with RSL3 (200 nM for HT22 and HMC3, 500 nM for BV-2) for two hours, followed by bilobalide analogues treatment (50 PM) for 22 hours. Cell viability was measured using cell counting kit-8 (CCK-8); n=5 technical replicates. […]

HMC3 cells [8] = experiment: Intracellular ROS level by CellROX (fluorescent imaging and flow cytometry); assay type: cell-based; conditions: HMC3, 50 nM RSL3 2 h, then 50 μM compound 3 h
Procedure: as §1
For fluorescent imaging, 10,000 cells per well of HMC3 were laid on cover slip and incubated overnight. After the same compound treatment as described above in this section, cells were subsequently incubated with CellROX™ Green and Hoechst 34580 (MCE) for 30 min. After incubation, cells were washed 3 times gently with PBS. Cover slips were then attached to glass slides by Anti-Fade Fluorescence Mounting Medium (Abcam) and imaged via ECLIPSE Ti fluorescence microscope (Nikon). Fluorescent intensity was quantified using imageJ software.
To further evaluate the anti-ferroptotic properties of bilobalide analogues, we tested its effect on the total level of intracellular reactive oxygen species (ROS), we performed fluorescent staining on the HMC3 cell line using CellROX, which is a probe which can emit green fluorescence after reacting with ROS. […]

[9] = Hydrolytic stability in buffer monitored by LC-MS/MS

Structure (SMILES) | pIC50 (KP-1 cells) | inhibition of RSL3-induced ferroptosis (phenotypic screening, cell viability) [1] | lipid peroxidation level (C11-BODIPY) (HMC3 cells [2]) | protection against FIN56-induced cell death (cell viability) (HMC3 cells [3]) | protection against ML162 lethality (cell viability) (HMC3 cells [3]) | protection against ML210 lethality (cell viability) (HMC3 cells [3]) | protection against erastin-induced lethality (cell viability) (HMC3 cells [3]) | GPX4 level after RSL3 (GPX4) | cytotoxicity (cell viability) (HMC3 cells [4]) | LC3-II/LC3-I ratio after RSL3 (LC3-II/LC3-I) | radical scavenging activity (relative radical level) [5] | inhibition of RSL3-induced ferroptosis (phenotypic screening, cell viability) [6] | inhibition of RSL3-induced ferroptosis (phenotypic screening, cell viability) [7] | shift of RSL3 dose-dependent viability curve ([1]; HMC3, multiple doses of RSL3, 50 μM compound) | intracellular ROS level (CellROX fluorescent staining) (HMC3 cells [8]) | lipid peroxidation level (C11-BODIPY) (HMC3 cells [2]; HMC3, 50 nM RSL3 2 h, then 50, 25 and 12.5 μM compound 3 h) | concentration remaining (hydrolytic stability) ([9]; buffer pH 6.8, after 20 hours) | concentration remaining (hydrolytic stability) ([9]; buffer pH 7.4, within the first 10 hours) | shift of RSL3 dose-dependent viability curve ([6]; HT22, multiple doses of RSL3, 50 μM compound)
CC(C)(C)[C@]1(O)C[C@@H]2OC(=O)C[C@@]23C(=O)O[C@@H]2N(CC4C5CC6CC(C5)CC4C6)C(=O)[C@H](OC(=O)c4ccc(CN)cc4)[C@]213 (stereo partly drawn) [SCC506, (3aS,5aS,8R,8aS,9R,10aS)-6-(((1S,3S)-adamantan-2-yl)methyl)-9-(tert-butyl)-9-hydroxy-2,4,7-trioxooctahydro-4H,9H-furo[3″,2″:2′,3′]cyclopenta[1′,2′:3,4]furo[2,3-b]pyrrol-8-yl 4-(aminomethyl)benzoate hydrochloride] | 4.77 | – | – | – | – | – | – | – | – | – | – | – | – | – | – | – | – | – | –
CC(C)(C)[C@]1(O)C[C@@H]2OC(=O)C[C@@]23C(=O)O[C@@H]2N(CCc4ccc(O)c(O)c4)C(=O)[C@H](OC(=O)c4ccccc4)[C@]213 [SXQ087-1] | – | effectively inhibit ferroptosis | significant down-regulation of RSL3-induced lipid peroxidation accumulation in a dose-dependent manner | effectively suppressed FIN56-induced cell death | alleviated the lethality of ML162 | alleviated the lethality of ML210 | suppressed erastin-induced lethality | RSL3-induced GPX4 degradation was reduced | no significant cytotoxicity | increasing LC3-II/LC3-I ratio was also reduced | significant dose-dependent radical scavenging activity | effectively inhibit ferroptosis | effectively inhibit ferroptosis | – | – | – | – | – | –
CC(C)(C)[C@]1(O)C[C@@H]2OC(=O)C[C@@]23C(=O)O[C@@H]2OC(=O)[C@H](O)[C@]213 [bilobalide] | – | – | – | – | – | – | – | – | no significant cytotoxicity | – | – | – | – | relatively marginal | no reduction in ROS level | no significant alteration | below 20% | below 20% | relatively marginal

Source: patent US20250144069A1, “BILOBALIDE DERIVATIVE COMPOUNDS FOR TREATING NEUROLOGICAL DISEASES AND CANCERS” (The Chinese University of Hong Kong, priority 2023, published 2025)
